Legend:
[1] = Plasma pharmacokinetics of CTLA-4 mAB in Wistar rats; assay type: in vivo; conditions: n=3
Method: This study was performed in order to investigate the plasma pharmacokinetics of CTLA-4 mAB in Wistar rats following subcutaneous administration of transient CTLA-4 mAB-linker-hydrogel prodrug 29b or following subcutaneous or intravenous administration of free CTLA-4 mAB. Animals (n=3 per group) received either a single SC injection of a 29b (1 mg/kg CTLA-4 mAB equivalents) in the neck region or a single SC injection in the neck region or IV injection in the tail vein of an CTLA-4 mAB formulation (1 mg/kg CTLA-4 mAB). At selected time points, 200 μL blood were collected in L^1-Heparin tubes and processed to plasma by centrifugation at 3,000 g for 10 minutes at 4° C.
CTLA-4 mAB concentrations in rat plasma were determined with a commercial ELISA setup obtained from BioVision Inc. (CA, USA, order number E4384-100). The manufacturer's instructions were followed with minor changes to the protocol. Specifically, the plasma samples were used undiluted (except for samples above the upper limit of quantification which were diluted with blank plasma prior to the measurement) and the sample incubation time was prolonged to 60 minutes.
Calibration standards of CTLA-4 mAB in blank plasma were prepared as follows: thawed L^1-Heparin Wistar rat plasma was homogenized. The free CTLA-4 mAB formulation was spiked into blank plasma at concentrations between 5,000 ng/mL and 50 ng/mL with additional higher and lower anchor points. These solutions were used for the generation of a calibration curve. Calibration curves were analyzed via a 4-parameter logarithmic fit and 1/Y^2 weighted. The determined CTLA-4 mAB plasma concentrations are depicted in Table 1.

[2] = system: MC38 tumor cells; assay: In vivo anti-tumor efficacy, MC38 tumor bearing mice (Example 28); parameters: species or system C57BL/6 mice with the human CTLA-4 gene knocked in; conditions: CTLA-4 mAB 4 x 210 μg intraperitoneal days 0, 4, 8, 12, 29b single 840 μg intratumoral
Method: The study was conducted in female C57BL/6 mice with the human CTLA-4 gene knocked into the endogenous CTLA-4 locus with an age of 6-11 weeks at the day of tumor inoculation. This model is also known as a Human Genetically Engineered Mouse Model or HuGEMM. Mice were subcutaneously implanted with 1×10^6 MC38 tumor cells in the right flank. When tumors to be injected were grown to a mean tumor volume of ˜65 mm^3, mice were randomized into treatment cohorts (day 0) and treated with either: 1) a single 50 μL intratumoral injection of control hydrogel 30 or 2) a single 50 μL intratumoral injection of 840 μg of CTLA-4 mAB-linker-hydrogel prodrug 29b or 3) four total 200 μL intraperitoneal doses of 210 μg given on Days 0, 4, 8, and 12 of CTLA-4 mAB. Hydrogels were administered as suspensions in 20 mM succinate, 135 mM NaCl, 0.01% Tween-20, pH 4.0 buffer. Following treatment initiation, anti-tumor efficacy was assessed by determination of tumor volumes at various time points from tumor size measurements with a caliper. Tumor volumes were calculated according to the formula:
Tumor volume=(L×W^2)×0.5 where L is the length of the tumor and W the width (both in mm). Mice were removed from the study once tumors were greater than 3000 mm^3.

[3] = system: MC38 tumor cells; assay: In vivo anti-tumor efficacy, MC38 tumor bearing mice (Example 33); parameters: species or system C57BL/6 mice with the human CTLA4 gene knocked in
Method: The study was conducted in female C57BL/6 mice with the human CTLA4 gene knocked into the endogenous CTLA4 locus with an age of 6-11 weeks at the day of tumor inoculation. This model is also known as a Human Genetically Engineered Mouse Model or HuGEMM. Mice were subcutaneously implanted with 1×10^6 MC38 tumor cells in the right flank. When tumors to be injected were grown to a mean tumor volume of ˜65 mm^3, mice were randomized into treatment cohorts (day 0) and treated with either: 1) a single 50 μL intratumoral injection of control hydrogel 30 or 2) four total 200 μL intraperitoneal doses of 18 μg given on days 0, 4, 8, and 12 of free CTLA-4 mAB, or 3) a single 50 μL intratumoral injection of 840 μg of CTLA-4 mAB-linker-hydrogel prodrug 29b or 3) a single 50 μL intratumoral injection of 72 μg of CTLA-4 mAB-linker-hydrogel prodrug 29c. […] Following treatment initiation, anti-tumor efficacy was assessed by determination of tumor volumes at various time points from tumor size measurements with a caliper. Tumor volumes were calculated according to the formula: Tumor volume=(L×W^2)×0.5 where L is the length of the tumor and W the width (both in mm). […] Percent tumor growth inhibition (TGI) was calculated according to the formula: [1−(Mean Tumor Volume in treated animals)/(Mean Tumor Volume in control animals)]*100.

[4] = system: tumor immune cells; assay: Flow cytometric profiling of tumor immune cells; assay type: in vivo, C57BL/6 mice with the human CTLA4 gene knocked in; conditions: day 7
Method: (§1) The study was conducted in female C57BL/6 mice with the human CTLA4 gene knocked into the endogenous CTLA4 locus with an age of 6-11 weeks at the day of tumor inoculation. This model is also known as a Human Genetically Engineered Mouse Model or HuGEMM. Mice were subcutaneously implanted with 1×10^6 MC38 tumor cells in the right flank. When tumors to be injected were grown to a mean tumor volume of ˜65 mm^3, mice were randomized into treatment cohorts (day 0) and treated with either: 1) a single 50 μL intratumoral injection of control hydrogel 30 or 2) four total 200 μL intraperitoneal doses of 18 μg given on days 0, 4, 8, and 12 of free CTLA-4 mAB, or 3) a single 50 μL intratumoral injection of 840 μg of CTLA-4 mAB-linker-hydrogel prodrug 29b or 3) a single 50 μL intratumoral injection of 72 μg of CTLA-4 mAB-linker-hydrogel prodrug 29c. Hydrogels were administered as suspensions in 20 mM succinate, 135 mM NaCl, 0.01% Tween20, pH 4.0 buffer.
Mice were sacrificed 7 days after randomization (D0). Following sacrifice, blood, spleen and tumor were isolated. Spleen samples were dissociated mechanically to generate single suspensions. Tumor samples were enzymatically and mechanically dissociated to generate single cell suspensions. Cell suspensions from spleen and tumor were centrifuged at 300 g for 5 minutes and 2×10^6 cells were used for staining. For whole blood, approximately 100 μL was used for staining. Cells were resuspended in FACS buffer with 1 μg/ml Fc-Block and incubated at 4° C. for 10 minutes in the dark. Surface marker antibody mixtures in FACS buffer were added to each sample and samples were incubated in the dark at 4° C. for 30 minutes. Red blood cell lysis buffer (Bio-gems) was added if needed and cells were further incubated at 4° C. for 10 minutes. Cells were washed twice with FACS buffer then fixed and permeabilized for 30 minutes at room temperature with Fix/Perm buffer (eBioscience). Cells were washed twice in Permeabilization Buffer and stained with intracellular antibodies in Permeabilization buffer for 30 minutes at room temperature. Cells were washed twice in FACS buffer and acquired in the presence of 123count Ebeads (eBioscience). After collection, FACS data was analyzed using FlowJo Version 10.6.1. Compensation was digitally adjusted using single antibody-stained beads, single antibody-stained cells, and fluorescence minus one (FMO) controls. CD4^+ T cells were gated as live, intact CD45+ CD3+ CD4+ events. Tregs were gated as the CD25+ FOXP3+ subset of CD4 T cells. […] The change in the mean percentage of positive cells for indicated populations relative to control treatment was calculated by the formula: mean percentage of positive cells in treated animals—mean percentage of positive cells in control treated animals.

[5] = system: blood immune cells; assay: Flow cytometric profiling of blood immune cells; assay type: in vivo, C57BL/6 mice with the human CTLA4 gene knocked in; conditions: day 7; doses as E70
Method: as §1
(§2) Mice were sacrificed 7 days after randomization (D0). Following sacrifice, blood, spleen and tumor were isolated. Spleen samples were dissociated mechanically to generate single suspensions. Tumor samples were enzymatically and mechanically dissociated to generate single cell suspensions. Cell suspensions from spleen and tumor were centrifuged at 300 g for 5 minutes and 2×10^6 cells were used for staining. For whole blood, approximately 100 μL was used for staining. Cells were resuspended in FACS buffer with 1 μg/ml Fc-Block and incubated at 4° C. for 10 minutes in the dark. Surface marker antibody mixtures in FACS buffer were added to each sample and samples were incubated in the dark at 4° C. for 30 minutes. Red blood cell lysis buffer (Bio-gems) was added if needed and cells were further incubated at 4° C. for 10 minutes. Cells were washed twice with FACS buffer then fixed and permeabilized for 30 minutes at room temperature with Fix/Perm buffer (eBioscience). Cells were washed twice in Permeabilization Buffer and stained with intracellular antibodies in Permeabilization buffer for 30 minutes at room temperature. Cells were washed twice in FACS buffer and acquired in the presence of 123count Ebeads (eBioscience). After collection, FACS data was analyzed using FlowJo Version 10.6.1. Compensation was digitally adjusted using single antibody-stained beads, single antibody-stained cells, and fluorescence minus one (FMO) controls. CD4^+ T cells were gated as live, intact CD45+ CD3+ CD4+ events. Tregs were gated as the CD25+ FOXP3+ subset of CD4 T cells. CD8^+ T cells were gated as live, intact CD45+ CD3+ CD8+ events. Subgates were then defined using the controls mentioned above. The change in the mean percentage of positive cells for indicated populations relative to control treatment was calculated by the formula: mean percentage of positive cells in treated animals—mean percentage of positive cells in control treated animals.

[6] = system: spleen immune cells; assay: Flow cytometric profiling of spleen immune cells; assay type: in vivo, C57BL/6 mice with the human CTLA4 gene knocked in; conditions: day 7; doses as E70
Method: as §1, §2

## CTLA-4 mAB: Monoclonal antibody CTLA-4 mAB (AMO-M6104, CAS No. 477202-00-9) obtained from AbMole Bioscience Inc.
[1]; 1 h, 1 mg/kg CTLA-4 mAB (equivalents), subcutaneous, LLOQ 50 ng/mL
  mean CTLA-4 mAB plasma concentration: 170 ng/mL
[1]; 1 h, 1 mg/kg intravenous
  mean CTLA-4 mAB plasma concentration: 18000 ng/mL
[1]; 4 h, 1 mg/kg CTLA-4 mAB (equivalents), subcutaneous, LLOQ 50 ng/mL
  mean CTLA-4 mAB plasma concentration: 600 ng/mL
[1]; 4 h, 1 mg/kg intravenous
  mean CTLA-4 mAB plasma concentration: 14000 ng/mL
[1]; 24 h, 1 mg/kg CTLA-4 mAB (equivalents), subcutaneous
  mean CTLA-4 mAB plasma concentration: 3700 ng/mL
[1]; 24 h, 1 mg/kg intravenous
  mean CTLA-4 mAB plasma concentration: 9600 ng/mL
[1]; 32 h, 1 mg/kg CTLA-4 mAB (equivalents), subcutaneous
  mean CTLA-4 mAB plasma concentration: 4800 ng/mL
[1]; 32 h, 1 mg/kg intravenous
  mean CTLA-4 mAB plasma concentration: 7500 ng/mL
[1]; 48 h, 1 mg/kg CTLA-4 mAB (equivalents), subcutaneous
  mean CTLA-4 mAB plasma concentration: 6200 ng/mL
[1]; 48 h, 1 mg/kg intravenous
  mean CTLA-4 mAB plasma concentration: 6000 ng/mL
[1]; 72 h, 1 mg/kg CTLA-4 mAB (equivalents), subcutaneous
  mean CTLA-4 mAB plasma concentration: 6900 ng/mL
[1]; 72 h, 1 mg/kg intravenous
  mean CTLA-4 mAB plasma concentration: 4900 ng/mL
[1]; 96 h, 1 mg/kg CTLA-4 mAB (equivalents), subcutaneous
  mean CTLA-4 mAB plasma concentration: 6100 ng/mL
[1]; 96 h, 1 mg/kg intravenous
  mean CTLA-4 mAB plasma concentration: 4000 ng/mL
[1]; 168 h, 1 mg/kg CTLA-4 mAB (equivalents), subcutaneous
  mean CTLA-4 mAB plasma concentration: 5700 ng/mL
[1]; 168 h, 1 mg/kg intravenous
  mean CTLA-4 mAB plasma concentration: 3100 ng/mL
[2]
  Mean Tumor Volume (mm3) Day 20: 60.5 mm3
[3]; day 20, vs control hydrogel 30, doses as E66
  Percent Tumor Growth Inhibition: 97.3%
[3]; day 20, CTLA-4 mAB 4 x 18 μg intraperitoneal days 0, 4, 8, 12, 29b single 840 μg intratumoral, 29c single 72 μg intratumoral
  Mean Tumor Volume (mm3): 57.1 mm3
[4]; CTLA-4 mAB 18 μg doses IP, 29b 840 μg IT, 29c 72 μg IT
  Increase in Percentage Positive from control hydrogel 30: Tumor CD44++ CD62L− of CD4s: 10.73%
[4]; doses as E70
  Increase in Percentage Positive from control hydrogel 30: Tumor CD44++ CD62L− of CD8s: 6.51%
  Increase in Percentage Positive from control hydrogel 30: Tumor CD69+ of CD4s: 2.37%
  Increase in Percentage Positive from control hydrogel 30: Tumor ICOS+ of CD4s: 13.77%
[5]
  Increase in Percentage Positive from control hydrogel 30: Blood CD4 of T: 0.53%
  Increase in Percentage Positive from control hydrogel 30: Blood CD25+ of CD4: 2.88%
  Increase in Percentage Positive from control hydrogel 30: Blood CD44++ CD62L− of CD4s: 15.28%
  Increase in Percentage Positive from control hydrogel 30: Blood CD69+ of CD4: 3.35%
  Increase in Percentage Positive from control hydrogel 30: Blood CD69+ of Treg: 3.69%
  Increase in Percentage Positive from control hydrogel 30: Blood ICOS+ of CD4s: 18.80%
  Increase in Percentage Positive from control hydrogel 30: Blood ICOS+ of CD8s: 9.26%
  Increase in Percentage Positive from control hydrogel 30: Blood Ki67+ of CD4s: 14.64%
  Increase in Percentage Positive from control hydrogel 30: Blood Treg of CD4: 2.22%
[6]
  Increase in Percentage Positive from control hydrogel 30: Spleen CD4 of T: 4.90%
  Increase in Percentage Positive from control hydrogel 30: Spleen CD25+ of CD4: 4.38%
  Increase in Percentage Positive from control hydrogel 30: Spleen CD69+ of CD4: 8.33%
  Increase in Percentage Positive from control hydrogel 30: Spleen CD69+ of Treg: 9.17%
  Increase in Percentage Positive from control hydrogel 30: Spleen ICOS+ of CD8s: 3.18%
  Increase in Percentage Positive from control hydrogel 30: Spleen Ki67+ of CD4s: 11.75%
  Increase in Percentage Positive from control hydrogel 30: Spleen Ki67+ of Tregs: 16.97%
  Increase in Percentage Positive from control hydrogel 30: Spleen Treg of CD4: 6.64%
